Test results as given in patent USRE47428E1, “Modulators of methyl modifying enzymes, compositions and uses thereof” (Constellation Pharmaceuticals, Inc., priority 2013, dated 2019).
Read-outs that look alike come from different tables or passages of the source.

Tests used:
[1] = biological target: Y641N EZH2 (Homo sapiens, UniProt Q15910, Y641N); assay: Y641N EZH2 assay, H3K27Me2 oligonucleosomes as substrate; assay type: biochemical
Description: (§1) Assays were carried out by mixing rPRC2 together with biotinylated oligonucleosome substrates in the presence of the radio-labeled enzyme co-factor, S-adenosyl-L-methionine (^3H SAM) (Perkin Elmer) and monitoring the enzymatically mediated transfer of tritiated methyl groups from ^3H SAM to histone lysine residues. The amount of resulting tritiated methyl histone product was measured by first capturing the biotinylated oligonucleosomes in streptavidin (SAV) coated FlashPlates (Perkin Elmer), followed by a wash step to remove un-reacted ^3H SAM, and then counting on a TopCount NXT 384 well plate scintillation counter (Perkin Elmer). The final assay conditions for EZH2 were as follows: 50 mM Tris Buffer pH 8.5, 1 mM DTT, 69 μM Brij-35 detergent, 5.0 mM MgCl2, 0.1 mg/mL BSA, 0.2 μM ^3H SAM, 0.2 μM biotinylated oligonucleosomes, 3.6 μM H3K27me3 peptide and 2 nM EZH2.
(§2) A 12.5 μL volume of the HMT enzyme, H3K27me3 peptide and oligonucleosome substrate in assay buffer was added to each well of the assay plate using a Multidrop Combi (Thermo-Fisher). Compounds were pre-incubated with the enzyme for 20 min, followed by initiation of the methyltransferase reaction by addition of 12.5 μL of ^3H SAM in assay buffer (final volume=25 μL). The final concentrations of compounds ranged from a top default concentration of 80 μM down to 0.16 μM in ten 2-fold dilution steps. Reactions were carried out for 60 minutes and quenched with 20 μL per well of 1.96 mM SAH, 50 mM Tris pH 8.5, 200 mM EDTA. Stopped reactions were transferred to SAV coated Flash-plates (Perkin Elmer), incubated for 120 min, washed with a plate washer, and then read on the TopCount NXT (1.0 min/well) to measure the amount of methyl histone product formed during the reaction.

[2] = biological target: EZH2 (Homo sapiens, UniProt Q15910); assay: EZH2 assay: rPRC2 methyltransferase, 3H SAM FlashPlate; assay type: biochemical; conditions: 0.2 μM 3H SAM, 2 nM EZH2
Description: as §1, §2

[3] = test system: Karpas422 human lymphoma xenograft; assay: Tumor growth inhibition, subcutaneous Karpas422 human lymphoma xenograft model; assay type: in vivo, Mus Musculus; conditions: 160 mg/kg; for TGI (%) / T/C (%) / Tumor Size (mm3) on day 25: Karpas422 xenograft; for TGI (%) / T/C (%): CB-17 SCID mice; for TGI (%) / T/C (%) / Significance: day 25; for T/C (%): treated/control mean tumor volume; for Tumor Size (mm3) on day 25: female CB-17 SCID mice, day 25 after start of treatment, Mean ± SEM; for Significance: one-way ANOVA vs vehicle, tumor volume
Description: Number of animals: 50 mice plus spare
Animal supplier: Shanghai SLAC Laboratory Animal Co., LTD.
The Karpas422 tumor cells were maintained in vitro as suspension culture in RPMI1640 medium supplemented with 10% heat inactivated fetal calf serum at 37° C. in an atmosphere of 5% CO2 in air. The tumor cells were routinely subcultured twice weekly. The cells growing in an exponential growth phase were harvested and counted for tumor inoculation.
Each mouse was inoculated subcutaneously at the right flank with the Karpas422 tumor cells (5×10^6) in 0.2 ml of PBS with Matrigel (1:1) for tumor development. Day 23 after tumor inoculation was as day 0 after the start of treatment when the average tumor size reached approximately 300 mm^3. Each group consisted of 10 tumor-bearing mice.
Tumor size was measured three times weekly in two dimensions using a caliper, and the volume was expressed in mm^3 using the formula: V=0.536a×b^2 where a and b are the long and short diameters of the tumor, respectively. The tumor size was then used for calculations of T/C values. The T/C value (in percent) is an indication of antitumor effectiveness; T and C are the mean volumes of the treated and control groups, respectively, on a given day. TGI was calculated for each group using the formula: TGI (%)[1−(Ti−T0)/(Vi−V0)]×100; Ti is the average tumor volume of a treatment group on a given day, T0 is the average tumor volume of the treatment group on the day of treatment start, Vi is the average tumor volume of the vehicle control group on the same day with Ti, and V0 is the average tumor volume of the vehicle group on the day of treatment start.
Experimental Endpoint and Sample Collection
1). Plasma, tumor and muscle in EPZ-6438 group were collected on day 16 after the start of treatment at 6 h after dosing. Plasma, tumor and muscle in vehicle, CPI-524369, CPI-524416 and CPI-591780 groups were collected on day 25 after the start of treatment at 1 h after dosing. 2). All the blood was taken from each animal with EDTA-K2 as anticoagulant. Plasma was divided into two parts. The first part was for PK analysis; the second part was frozen for backup. 3). Tumor was divided into three parts. The first part was snap-frozen for PK; the second part was snap-frozen for PD analysis; the third part was frozen for backup. 4). Muscle was divided into two parts. The first part was snap-frozen for PK; the second part was frozen for backup.
Tumor Growth Inhibition Analysis

[4] = Y641N EZH2 mutant enzyme, H3K27Me2 oligonucleosomes, read-out: Y641N EZH2 IC50
[5] = rPRC2, biotinylated oligonucleosomes, read-out: EZH2 IC50
[6] = EZH2 IC50, rPRC2, biotinylated oligonucleosomes

Sequence of Y641N EZH2 (Q15910 whole entry Y641N): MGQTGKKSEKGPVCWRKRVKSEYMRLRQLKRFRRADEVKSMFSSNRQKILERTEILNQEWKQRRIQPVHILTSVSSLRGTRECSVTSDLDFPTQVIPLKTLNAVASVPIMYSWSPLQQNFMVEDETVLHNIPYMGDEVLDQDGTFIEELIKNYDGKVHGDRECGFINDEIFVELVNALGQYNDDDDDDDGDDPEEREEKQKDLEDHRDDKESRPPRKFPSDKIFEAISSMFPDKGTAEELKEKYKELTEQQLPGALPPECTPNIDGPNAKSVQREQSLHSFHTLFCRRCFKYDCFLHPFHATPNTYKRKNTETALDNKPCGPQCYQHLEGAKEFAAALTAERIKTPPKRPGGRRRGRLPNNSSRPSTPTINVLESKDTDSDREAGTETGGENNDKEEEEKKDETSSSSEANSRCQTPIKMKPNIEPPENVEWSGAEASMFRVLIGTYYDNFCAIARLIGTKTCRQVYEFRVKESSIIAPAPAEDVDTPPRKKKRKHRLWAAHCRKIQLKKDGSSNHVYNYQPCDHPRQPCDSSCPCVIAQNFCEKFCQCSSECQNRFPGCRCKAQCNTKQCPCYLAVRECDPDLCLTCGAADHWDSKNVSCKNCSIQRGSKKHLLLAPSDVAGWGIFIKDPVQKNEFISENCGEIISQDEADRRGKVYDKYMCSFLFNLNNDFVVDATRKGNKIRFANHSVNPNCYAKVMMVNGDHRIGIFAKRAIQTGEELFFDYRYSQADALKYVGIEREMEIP
Sequence of Y641N EZH2 (O75530 whole entry partner): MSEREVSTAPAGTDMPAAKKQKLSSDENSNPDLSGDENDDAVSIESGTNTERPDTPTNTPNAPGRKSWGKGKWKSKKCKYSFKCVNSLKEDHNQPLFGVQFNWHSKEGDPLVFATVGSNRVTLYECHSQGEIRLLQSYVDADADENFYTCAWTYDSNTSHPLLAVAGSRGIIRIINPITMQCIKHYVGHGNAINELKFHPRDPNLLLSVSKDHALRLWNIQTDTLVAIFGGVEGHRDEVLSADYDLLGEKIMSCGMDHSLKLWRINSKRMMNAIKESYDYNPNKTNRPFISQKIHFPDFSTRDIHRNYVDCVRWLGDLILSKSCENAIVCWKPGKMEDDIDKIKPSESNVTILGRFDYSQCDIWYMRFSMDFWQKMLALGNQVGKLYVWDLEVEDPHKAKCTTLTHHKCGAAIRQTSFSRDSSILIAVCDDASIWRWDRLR
Sequence of Y641N EZH2 (Q15022 whole entry partner): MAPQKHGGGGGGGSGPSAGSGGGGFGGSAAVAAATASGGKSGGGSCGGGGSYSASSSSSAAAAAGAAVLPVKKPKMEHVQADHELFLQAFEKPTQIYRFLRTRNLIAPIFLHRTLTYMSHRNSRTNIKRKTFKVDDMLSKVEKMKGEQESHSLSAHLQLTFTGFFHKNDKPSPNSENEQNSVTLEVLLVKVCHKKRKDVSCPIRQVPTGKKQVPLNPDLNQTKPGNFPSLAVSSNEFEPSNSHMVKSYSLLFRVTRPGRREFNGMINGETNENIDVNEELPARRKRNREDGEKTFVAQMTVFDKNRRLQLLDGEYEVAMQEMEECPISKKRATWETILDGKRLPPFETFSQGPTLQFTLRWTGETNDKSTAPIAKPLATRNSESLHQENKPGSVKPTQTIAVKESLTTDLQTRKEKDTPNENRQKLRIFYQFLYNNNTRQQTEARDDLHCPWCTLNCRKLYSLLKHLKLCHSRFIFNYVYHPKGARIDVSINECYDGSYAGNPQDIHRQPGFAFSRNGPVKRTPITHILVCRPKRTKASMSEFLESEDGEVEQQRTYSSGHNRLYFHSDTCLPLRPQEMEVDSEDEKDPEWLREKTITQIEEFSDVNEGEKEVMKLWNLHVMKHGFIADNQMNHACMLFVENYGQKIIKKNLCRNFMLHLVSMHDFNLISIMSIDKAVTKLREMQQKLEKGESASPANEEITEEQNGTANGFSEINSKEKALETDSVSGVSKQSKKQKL
Sequence of EZH2 (Q15910 whole entry): as the sequence (Q15910 whole entry Y641N) above, with N641Y counted along it
Sequence of EZH2 (O75530 whole entry partner): as the sequence (O75530 whole entry partner) above
Sequence of EZH2 (Q15022 whole entry partner): as the sequence (Q15022 whole entry partner) above

Structure (SMILES)	IC50 [1] [nM]	IC50 [1, 4] [nM]	IC50 [2, 5] [nM]	IC50 [2, 6] [nM]	other results
COc1cc(C)[nH]c(=O)c1CNC(=O)c1c(C)n(C(C)C(C)OC)c2ncccc12 (single isomer, unassigned) [Compound 266, N-((4-methoxy-6-methyl-2-oxo-1,2-dihydropyridin-3-yl)methyl)-1-((2R or 2S, 3R or 3S)-3-methoxybutan-2-yl)-2-methyl-1H-pyrrolo[2,3-b]pyridine-3-carboxamide]	100 to 1000	–	–	–	–
COc1cc(C)[nH]c(=O)c1CNC(=O)c1c(C)n(C(C)C2CCN(S(C)(=O)=O)CC2)c2ccccc12 (single isomer, unassigned) [Compound 336, (R or S)-N-((4-methoxy-6-methyl-2-oxo-1,2-dihydropyridin-3-yl)methyl)-2-methyl-1-(1-(1-(methylsulfonyl)piperidin-4-yl)ethyl)-1H-indole-3-carboxamide]	–	< 100	< 100	–	–
COc1cc(C)[nH]c(=O)c1CNC(=O)c1c(C)n(C(C)C2CCN(C(=O)C(C)(C)O)CC2)c2ccccc12 (single isomer, unassigned) [Compound 337, (R or S)-1-(1-(1-(2-hydroxy-2-methylpropanoyl)piperidin-4-yl)ethyl)-N-((4-methoxy-6-methyl-2-oxo-1,2-dihydropyridin-3-yl)methyl)-2-methyl-1H-indole-3-carboxamide]	–	< 100	< 100	–	–
COc1cc(C)[nH]c(=O)c1CNC(=O)c1c(C)n(C(C)C2CCN(C3COC3)CC2)c2ccccc12 (single isomer, unassigned) [Compound 341, (R or S)-N-((4-methoxy-6-methyl-2-oxo-1,2-dihydropyridin-3-yl)methyl)-2-methyl-1-(1-(1-(oxetan-3-yl)piperidin-4-yl)ethyl)-1H-indole-3-carboxamide]	< 100	–	–	< 100	–
COc1cc(C)[nH]c(=O)c1CNC(=O)c1c(C)n(C(C)C2CCN(C(=O)C(C)C)CC2)c2ccccc12 (single isomer, unassigned) [Compound 342, (R or S)-1-(1-(1-isobutyrylpiperidin-4-yl)ethyl)-N-((4-methoxy-6-methyl-2-oxo-1,2-dihydropyridin-3-yl)methyl)-2-methyl-1H-indole-3-carboxamide]	–	< 100	< 100	–	–
Cc1cc(OC(F)F)c(CNC(=O)c2c(C)n(C(C)C3CCN(S(C)(=O)=O)CC3)c3ccccc23)c(=O)[nH]1 (single isomer, unassigned) [Compound 344, (R or S)-N-((4-(difluoromethoxy)-6-methyl-2-oxo-1,2-dihydropyridin-3-yl)methyl)-2-methyl-1-(1-(1-(methylsulfonyl)piperidin-4-yl)ethyl)-1H-indole-3-carboxamide]	–	< 100	< 100	–	–
COCCN1CCC(C(C)n2c(C)c(C(=O)NCc3c(OC)cc(C)[nH]c3=O)c3ccccc32)CC1 (single isomer, unassigned) [Compound 359, (R or S)-N-((4-methoxy-6-methyl-2-oxo-1,2-dihydropyridin-3-yl)methyl)-1-(1-(1-(2-methoxyethyl)piperidin-4-yl)ethyl)-2-methyl-1H-indole-3-carboxamide]	< 100	–	–	< 100	–
COc1cc(C)[nH]c(=O)c1CNC(=O)c1c(C)n(C(C)C2CCN(CC(F)F)CC2)c2ccccc12 (single isomer, unassigned) [Compound 362, (R or S)-1-(1-(1-(2,2-difluoroethyl)piperidin-4-yl)ethyl)-N-((4-methoxy-6-methyl-2-oxo-1,2-dihydropyridin-3-yl)methyl)-2-methyl-1H-indole-3-carboxamide]	–	–	–	–	TGI (%) [3]: 92.75%; T/C (%) [3]: 22.59%; Tumor Size (mm3) on day 25 [3]: 385 ± 66 mm3; Significance [3]: *** (*** p < 0.001)
COc1cc(C)[nH]c(=O)c1CNC(=O)c1c(C)n(C(C)C2CCN(CC(F)(F)F)CC2)c2ccccc12 (single isomer, unassigned) [Compound 365, (R or S)-N-((4-methoxy-6-methyl-2-oxo-1,2-dihydropyridin-3-yl)methyl)-2-methyl-1-(1-(1-(2,2,2-trifluoroethyl)piperidin-4-yl)ethyl)-1H-indole-3-carboxamide]	–	–	–	–	TGI (%) [3]: 97.25%; T/C (%) [3]: 18.72%; Tumor Size (mm3) on day 25 [3]: 319 ± 67 mm3; Significance [3]: *** (*** p < 0.001)
CCc1cc(C)[nH]c(=O)c1CNC(=O)c1c(C)n(C(C)C2CCN(C)CC2)c2ccccc12 (single isomer, unassigned) [Compound 366, (R or S)-N-((4-ethyl-6-methyl-2-oxo-1,2-dihydropyridin-3-yl)methyl)-2-methyl-1-(1-(1-methylpiperidin-4-yl)ethyl)-1H-indole-3-carboxamide]	< 100	–	–	< 100	–
Cc1cc(C)c(CNC(=O)c2c(C)n(C(C)C3CCN(C4COC4)CC3)c3ccccc23)c(=O)[nH]1 (single isomer, unassigned) [Compound 375, (R or S)-N-((4,6-dimethyl-2-oxo-1,2-dihydropyridin-3-yl)methyl)-2-methyl-1-(1-(1-(oxetan-3-yl)piperidin-4-yl)ethyl)-1H-indole-3-carboxamide]	< 100	–	–	< 100	–
